Measurements reported in article PMC12351382, “Fibrinography and thrombography (thrombodynamics-4D) in atrial fibrillation assessment of direct oral anticoagulants in geriatrics patients aged 80 years and older receiving direct oral anticoagulant therapy” (Research and Practice in Thrombosis and Haemostasis, 2025).

Legend:
fibrin clot formation [1] = experiment: Thrombodynamics-4D fibrinography in pooled normal plasma (Cryocheck) spiked with DOACs; assay type: biochemical, human; conditions: 0 to 1000 nM, mainly at low DOAC concentrations
Procedure: (§1) Frozen pooled normal plasma samples (Cryocheck-Cryopep) were spiked with increasing concentrations of DOACs (0-450 ng/mL), as previously described. […] were kindly provided by Bristol Myers Squibb/Pfizer, Bayer Healthcare, and Boehringer Ingelheim, respectively.
The TD-4D assay was performed centrally using the Thrombodynamics analyzer system (Hemacore, Diapharma) with the TD-4D PLS dedicated kit (Hemacore, Diapharma). The system simultaneously measures spatiotemporal parameters of fibrin clot formation (fibrinography) and TG process (thrombography) in a thin layer of unstirred plasma. Briefly, 120 μL of platelet-poor plasma is added to a microcuvette containing corn trypsin inhibitor to prevent contribution of contact phase activation, then 5 μL of phospholipid solution (manufacturer’s reagent) is added. […] The process of fibrin clot formation is recorded in a time-lapse video-microscopy mode using a dark-field light scattering method. […] Clot growth is detected with red light scattering, while AMC fluorescence is detected with UV. Scattered red light and fluorescence passing through the macro lens are recorded by a charge-coupled device system. […]
(§2) The following fibrinography parameters were recorded (see Supplementary Table 1): (i) lag time (Tlag, minutes); (ii) initial rate of clot growth (Vi, μm/min); (iii) rate of clot growth (V, μm/min); (iv) clot size (CS, μm) measured at 30 minutes; (v) clot density (D, arbitrary units); (vi) time to spontaneous clotting (Tsp, minutes). The following thrombography parameters (at the near-activator area) were recorded (see Supplementary Table 1): (i) Tlag (minutes); (ii) time to thrombin peak (minutes); (iii) maximal thrombin concentration (ie, thrombin peak height, Cmax_ATG, AU/L); (iv) endogenous thrombin potential (ETP_ATG, AU⋅min/L); (v) stationary amplitude of moving peak of thrombin (Ast, AU/L); (vi) rate of thrombin peak propagation (μm/min; see Supplementary Videos 1–3).

[2] = Plasma DOAC concentration in ADAGE patients (chromogenic anti-FXa assay for rivaroxaban and apixaban; anti-FIIa Hemoclot assay for dabigatran); assay type: in vivo, human; conditions: for DOAC concentration, range: ADAGE patients, reduced dose (regimens as E1)
Source text: (§3) ADAGE is an academic, prospective, observational multicenter study (NCT 02464488; for details, see Foulon-Pinto et al.). We recruited hospitalized patients from the university hospital’s geriatric department (Assistance Publique-Hôpitaux de Paris, Paris, France). […] The DOAC dose regimen was at the discretion of the physician. Exclusion criteria included any acute, unstable comorbid condition or an estimated life expectancy of a few weeks. Sampling (see below) and last DOAC intake times were recorded on a standardized request form. Sampling time points were at the discretion of the physicians over a period of 20 days following inclusion. Time points were classified according to the time elapsed from the last oral intake (T, hours) for patients receiving rivaroxaban. T1 to T4 corresponded to peak time (Tmax), and T20 to T24 corresponded to trough (Tmin). […] Physicians prospectively collected demographic, clinical, and laboratory data (including creatinine clearance [CrCl] calculated with the Cockcroft–Gault formula). The study was approved by the institutionnel Ethics Committee (Comité consultatif de protection des personnes pour la recherche biomédicale–Île-de-France-6–number 15.074bis). All participants gave written informed consent to participate in the study. Only patients for whom remaining plasma aliquots were available were included in the present study.
(§4) Tubes were sent to each centre’s laboratory within 2 hours after sampling and immediately double-centrifuged for 15 minutes at 2000 × g at 15 to 22 °C to obtain platelet-poor plasma. Plasma samples (500 μL aliquots) were stored at −80 °C prior to shipment on dry ice for central analysis (Haematology Laboratory, Hôpital Lariboisière). Plasma samples were thawed for 3 to 5 minutes in a 37 °C water bath just before testing.
Dedicated calibrations and controls were used. The lower limit of quantification was 20 ng/mL for the 3 assays.

thrombin generation [3] = experiment: Thrombodynamics-4D thrombography in plasma samples from ADAGE patients on DOACs; assay type: in vivo, human; conditions: for ETP (endogenous thrombin potential, ETP_ATG), median (IQR) / ETP (endogenous thrombin potential, ETP_ATG), range / Thrombin peak height (Cmax_ATG), median (IQR) / Thrombin peak height (Cmax_ATG), range / Thrombography Tlag (Lag_ATG), median (IQR) / Thrombography Tlag (Lag_ATG), range / Time to peak (Tmax_ATG), median (IQR) / Time to peak (Tmax_ATG), range: ADAGE patients, reduced dose (regimens as E1)
Source text: as §3, §4
(§5) The TD-4D assay was performed centrally using the Thrombodynamics analyzer system (Hemacore, Diapharma) with the TD-4D PLS dedicated kit (Hemacore, Diapharma). The system simultaneously measures spatiotemporal parameters of fibrin clot formation (fibrinography) and TG process (thrombography) in a thin layer of unstirred plasma. Briefly, 120 μL of platelet-poor plasma is added to a microcuvette containing corn trypsin inhibitor to prevent contribution of contact phase activation, then 5 μL of phospholipid solution (manufacturer’s reagent) is added. After incubation for 15 minutes at 37 °C in the Thrombodynamics device, the mixture is transferred to a second microcuvette containing calcium ions, and then immediately transferred to the measurement cuvette. Finally, the activator insert, whose surface is coated with immobilized tissue factor (100 pmol/m^2), is then transferred to the cuvette. The process of fibrin clot formation is recorded in a time-lapse video-microscopy mode using a dark-field light scattering method. Simultaneously, the system monitors TG by fluorimetry, based on the ability of thrombin to cleave a fluorogenic substrate, 7-amino-4-methylcoumarin (AMC) bound to a short amino acid sequence (Arg-Gly-Gly). The rate of AMC formation is proportional to local thrombin concentration. The microcuvette is maintained at 37 °C and is illuminated with red (625 nm) or ultra-violet (365 nm) light emitting diodes. Clot growth is detected with red light scattering, while AMC fluorescence is detected with UV. Scattered red light and fluorescence passing through the macro lens are recorded by a charge-coupled device system. Images under red and blue light are acquired once per minute. The whole analysis lasts 1 hour. The Thrombodynamics software (Hemacore, Diapharma) calculates parameters of spatiotemporal dynamics of fibrin clot formation and TG [40, 46]. […]

thrombin generation [4] = experiment: Thrombodynamics-4D thrombography in pooled normal plasma (Cryocheck) spiked with DOACs; assay type: biochemical, human
Procedure: as §1
as §5, with “minute.” for “minute. The whole analysis lasts 1 hour. The Thrombodynamics software (Hemacore, Diapharma) calculates parameters of spatiotemporal dynamics of fibrin clot formation and TG [40, 46].”
as §2

fibrin clot formation [5] = experiment: Thrombodynamics-4D fibrinography in plasma samples from ADAGE patients on DOACs; assay type: in vivo, human; conditions: for CS (clot size at 30 minutes), median (IQR) / CS (clot size at 30 minutes), range / D (clot density), median (IQR) / D (clot density), range / Fibrinography Tlag (lag time), median (IQR) / Fibrinography Tlag (lag time), range / Initial rate of clot growth (Vi), median (IQR) / Initial rate of clot growth (Vi), range / Time to Tsp (spontaneous clotting), median (IQR) / Time to Tsp (spontaneous clotting), range: ADAGE patients, reduced dose (regimens as E1)
Source text: as §3, §4, §5

[6] = all ADAGE patient samples, any time point and dose
[7] = univariate analysis, Tmax, line marked Halving
[8] = univariate analysis, Tmin, line marked Halving
[9] = all ADAGE patient samples, Spearman

## COc1ccc(-n2nc(C(N)=O)c3c2C(=O)N(c2ccc(N4CCCCC4=O)cc2)CC3)cc1 [Apixaban]
Fibrin clot formation [1]
  Samples in which spontaneous clotting occurred: 14%
[2]; Tmax (peak)
  DOAC concentration, range: 69 to 442 ng/mL
[2]; Tmin (trough)
  DOAC concentration, range: 20 to 240 ng/mL
[2]; [6]
  DOAC plasma concentration, lower end of range: < 20 ng/mL
  DOAC plasma concentration, upper end of range: 547 ng/mL
Thrombin generation [3]; Tmax (peak)
  ETP (endogenous thrombin potential, ETP_ATG), median (IQR): 1698 (1280-1961) AU⋅min/L
  ETP (endogenous thrombin potential, ETP_ATG), range: 971-3095 AU⋅min/L
  Thrombin peak height (Cmax_ATG), median (IQR): 309 (240-395) AU/L
  Thrombin peak height (Cmax_ATG), range: 206-507 AU/L
  Thrombography Tlag (Lag_ATG), median (IQR): 0.3 (0.2-0.6) min
  Thrombography Tlag (Lag_ATG), range: 0.1 to 1.3 min
  Time to peak (Tmax_ATG), median (IQR): 2.1 (2.1-2.6) min
  Time to peak (Tmax_ATG), range: 1.2 to 4.6 min
Thrombin generation [3]; Tmin (trough)
  ETP (endogenous thrombin potential, ETP_ATG), median (IQR): 1711 (1436-1978) AU⋅min/L
  ETP (endogenous thrombin potential, ETP_ATG), range: 924-2958 AU⋅min/L
  Thrombin peak height (Cmax_ATG), median (IQR): 325 (292-379) AU/L
  Thrombin peak height (Cmax_ATG), range: 158-511 AU/L
  Thrombography Tlag (Lag_ATG), median (IQR): 0.2 (0.2-0.6) min
  Thrombography Tlag (Lag_ATG), range: 0.1 to 1.0 min
  Time to peak (Tmax_ATG), median (IQR): 2.1 (2.1-2.1) min
  Time to peak (Tmax_ATG), range: 1.6 to 3.6 min
Thrombin generation [3]; all ADAGE patient samples
  Change of ETP_ATG with increasing DOAC plasma concentrations: decreased
Thrombin generation [3]; [7]
  Effect of DOAC concentration at Tmax (βC.pic) on thrombography peak height (PH): ≈ 0.07471%
Thrombin generation [3]; [8]
  Effect of DOAC concentration at Tmin (βC.res) on thrombography peak height (PH): ≈ 0.1698%
Thrombin generation [4]
  Change of Ast (stationary amplitude of thrombin moving peak) with increasing concentrations: decreased
Fibrin clot formation [5]; Tmax (peak)
  CS (clot size at 30 minutes), median (IQR): 1362 (1317-1698) μm
  CS (clot size at 30 minutes), range: 1134-1857 μm
  D (clot density), median (IQR): 25,340 (22,600-27,790) a.u.
  D (clot density), range: 14,090-34,880 a.u.
  Fibrinography Tlag (lag time), median (IQR): 1.3 (1.2-1.4) min
  Fibrinography Tlag (lag time), range: 0.9 to 2.3 min
  Initial rate of clot growth (Vi), median (IQR): 64.9 (60.9-74.2) μm/min
  Initial rate of clot growth (Vi), range: 56.1- 95.5 μm/min
  Time to Tsp (spontaneous clotting), median (IQR): 22.9 (12.1-31.1) min
  Time to Tsp (spontaneous clotting), range: 6.8 to 48.2 min
Fibrin clot formation [5]; Tmin (trough)
  CS (clot size at 30 minutes), median (IQR): 1655 (1395-1780) μm
  CS (clot size at 30 minutes), range: 1170-2147 μm
  D (clot density), median (IQR): 25,470 (21,190-29,910) a.u.
  D (clot density), range: 15,530-37,550 a.u.
  Fibrinography Tlag (lag time), median (IQR): 1.1 (1.0-1.3) min
  Fibrinography Tlag (lag time), range: 0.7 to 1.8 min
  Initial rate of clot growth (Vi), median (IQR): 68.3 (64.8-76.2) μm/min
  Initial rate of clot growth (Vi), range: 54.6-88.8 μm/min
  Time to Tsp (spontaneous clotting), median (IQR): 23.0 (12.8-28.1) min
  Time to Tsp (spontaneous clotting), range: 6.8 to 46.7 min
Fibrin clot formation [5]; all ADAGE patient samples
  Change of CS (clot size) with increasing concentrations: decreased
Fibrin clot formation [5]; [9]
  Association of D (clot density) with DOAC concentration: not
  Relationship between time to spontaneous clot formation (Tsp) and DOAC levels: no relationship
Fibrin clot formation [5]; [7]
  Effect of DOAC concentration at Tmax (βC.pic) on fibrinography initial velocity of clot formation: ≈ 0.02018%
Fibrin clot formation [5]; [8]
  Effect of DOAC concentration at Tmin (βC.res) on fibrinography initial velocity of clot formation: ≈ 0.04558%
